In ChEMBL document CHEMBL1154345, “Discovery of tricyclic 5,6-dihydro-1H-pyridin-2-ones as novel, potent, and orally bioavailable inhibitors of HCV NS5B polymerase” (Bioorg Med Chem Lett, 2009):

Experiments:
Hepatitis C virus = assay: microbe, parasite or virus in culture; assay type: functional, organism-based, Hepacivirus hominis, genotype 1b, Huh-luc/neo-ET; conditions: Hepatitis C virus, genotype 1b, Huh-luc/neo-ET, 72 h
Description: Antiviral activity against HCV-1b infected human Huh-luc/neo-ET replicon cells after 72 hrs by luciferase based replicon assay

in vitro [1] = conditions: human, t1/2
in vitro [2] = conditions: human
Description: Metabolic stability in human liver microsomes assessed as compound remaining after 60 mins at 1 uM

| EC50 (Hepatitis C virus) | Compound | further results |
| --- | --- | --- |
| 390 nM | CS(=O)(=O)Nc1ccc2c(c1)S(=O)(=O)N=C(C1=C(O)[C@@H]3C4CCC(CC4)[C@@H]3N(Cc3cccc(C(F)(F)F)c3)C1=O)N2 | – |
| 220 nM | CS(=O)(=O)Nc1ccc2c(c1)S(=O)(=O)N=C(C1=C(O)[C@@H]3C4CCC(CC4)[C@@H]3N(Cc3cc(F)ccc3F)C1=O)N2 | – |
| 26 nM | CS(=O)(=O)Nc1ccc2c(c1)S(=O)(=O)N=C(C1=C(O)[C@@H]3C4CCC(CC4)[C@@H]3N(Cc3ccccc3F)C1=O)N2 | half-life at 1 µM (in vitro [1]; liver microsomes): > 60 min; remaining at 1 h, 1 µM (in vitro [2]; liver microsomes): 81% |
| > 1000 nM | CS(=O)(=O)Nc1ccc2c(c1)S(=O)(=O)N=C(C1=C(O)[C@@H]3[C@@H]4CC[C@@H](C4)[C@@H]3N(Cc3nccs3)C1=O)N2 | – |
| 140 nM | CS(=O)(=O)Nc1ccc2c(c1)S(=O)(=O)N=C(C1=C(O)[C@@H]3[C@@H]4CC[C@@H](C4)[C@@H]3N(Cc3ccc(F)cc3Cl)C1=O)N2 | – |
| 73 nM | CS(=O)(=O)Nc1ccc2c(c1)S(=O)(=O)N=C(C1=C(O)[C@@H]3[C@@H]4CC[C@@H](C4)[C@@H]3N(Cc3ccc(Cl)cc3)C1=O)N2 | half-life at 1 µM (in vitro [1]; microsomes): > 60 min; remaining at 1 h, 1 µM (in vitro [2]; microsomes): 100% |
| 70 nM | CS(=O)(=O)Nc1ccc2c(c1)S(=O)(=O)N=C(C1=C(O)[C@@H]3[C@H]4CC[C@H](C4)[C@@H]3N(Cc3ccccc3F)C1=O)N2 | half-life at 1 µM (in vitro [1]; liver microsomes): > 60 min; remaining at 1 h, 1 µM (in vitro [2]; liver microsomes): 89% |
| 80 nM | CS(=O)(=O)Nc1ccc2c(c1)S(=O)(=O)N=C(C1=C(O)[C@@H]3C4CCC(CC4)[C@@H]3N(Cc3ccco3)C1=O)N2 | half-life at 1 µM (in vitro [1]; liver microsomes): > 60 min; remaining at 1 h, 1 µM (in vitro [2]; liver microsomes): 96% |
| 240 nM | Cc1ccc(CN2C(=O)C(C3=NS(=O)(=O)c4cc(NS(C)(=O)=O)ccc4N3)=C(O)[C@@H]3C4CCC(CC4)[C@@H]32)cc1F | – |
| 130 nM | CS(=O)(=O)Nc1ccc2c(c1)S(=O)(=O)N=C(C1=C(O)[C@@H]3[C@@H]4CC[C@@H](C4)[C@@H]3N(Cc3ccccc3Cl)C1=O)N2 | – |
| 160 nM | CS(=O)(=O)Nc1ccc2c(c1)S(=O)(=O)N=C(C1=C(O)[C@@H]3[C@@H]4CC[C@@H](C4)[C@@H]3N(CC3CCCC3)C1=O)N2 | half-life at 1 µM (in vitro [1]; microsomes): 17 min |
| 260 nM | CS(=O)(=O)Nc1ccc2c(c1)S(=O)(=O)N=C(C1=C(O)[C@@H]3[C@H]4CC[C@H](C4)[C@@H]3N(Cc3cc(F)ccc3F)C1=O)N2 | – |
| 72 nM | CS(=O)(=O)Nc1ccc2c(c1)S(=O)(=O)N=C(C1=C(O)[C@@H]3[C@H]4CC[C@H](C4)[C@@H]3N(CC3CCCC3)C1=O)N2 | half-life at 1 µM (in vitro [1]; microsomes): 46 min |
| 29 nM | CC(C)CCN1C(=O)C(C2=NS(=O)(=O)c3cc(NS(C)(=O)=O)ccc3N2)=C(O)[C@@H]2C3CCC(CC3)[C@@H]21 | half-life at 1 µM (in vitro [1]; liver microsomes): 59 min |
| 170 nM | CS(=O)(=O)Nc1ccc2c(c1)S(=O)(=O)N=C(C1=C(O)[C@@H]3[C@@H]4CC[C@@H](C4)[C@@H]3N(Cc3ccco3)C1=O)N2 | – |
| 1100 nM | CS(=O)(=O)Nc1ccc2c(c1)S(=O)(=O)N=C(C1=C(O)[C@@H]3C4CCC(CC4)[C@@H]3N(Cc3ccc(C(F)(F)F)cc3)C1=O)N2 | – |
| 260 nM | CS(=O)(=O)Nc1ccc2c(c1)S(=O)(=O)N=C(C1=C(O)[C@@H]3[C@@H]4CC[C@@H](C4)[C@@H]3N(Cc3cc(F)ccc3F)C1=O)N2 | – |
| > 1000 nM | CS(=O)(=O)Nc1ccc2c(c1)S(=O)(=O)N=C(C1=C(O)[C@@H]3[C@H]4CC[C@H](C4)[C@@H]3N(Cc3nccs3)C1=O)N2 | – |
| 24 nM | CS(=O)(=O)Nc1ccc2c(c1)S(=O)(=O)N=C(C1=C(O)[C@@H]3C4CCC(CC4)[C@@H]3N(CC3CCCC3)C1=O)N2 | half-life at 1 µM (in vitro [1]; liver microsomes): 47 min |
| 250 nM | CS(=O)(=O)Nc1ccc2c(c1)S(=O)(=O)N=C(C1=C(O)[C@@H]3[C@H]4CC[C@H](C4)[C@@H]3N(Cc3ccco3)C1=O)N2 | – |
| 3300 nM | CS(=O)(=O)Nc1ccc2c(c1)S(=O)(=O)N=C(C1=C(O)[C@@H]3C4CCC(CC4)[C@@H]3N(Cc3nccs3)C1=O)N2 | – |

Second part, the molecule before the results:

| Compound | EC50 (Hepatitis C virus) | further results |
| --- | --- | --- |
| CS(=O)(=O)Nc1ccc2c(c1)S(=O)(=O)N=C(C1=C(O)[C@@H]3[C@H]4CC[C@H](C4)[C@@H]3N(Cc3ccc(C(F)(F)F)cc3)C1=O)N2 | > 3300 nM | – |
| CS(=O)(=O)Nc1ccc2c(c1)S(=O)(=O)N=C(C1=C(O)[C@@H]3[C@H]4CC[C@H](C4)[C@@H]3N(Cc3cc(Cl)ccc3F)C1=O)N2 | 250 nM | – |
| CS(=O)(=O)Nc1ccc2c(c1)S(=O)(=O)N=C(C1=C(O)[C@@H]3[C@H]4CC[C@H](C4)[C@@H]3N(Cc3ccccc3Cl)C1=O)N2 | 90 nM | half-life at 1 µM (in vitro [1]; liver microsomes): > 60 min; remaining at 1 h, 1 µM (in vitro [2]; liver microsomes): 100% |
| CS(=O)(=O)Nc1ccc2c(c1)S(=O)(=O)N=C(C1=C(O)[C@@H]3[C@@H]4CC[C@@H](C4)[C@@H]3N(Cc3cc(Cl)ccc3F)C1=O)N2 | 300 nM | – |
| CS(=O)(=O)Nc1ccc2c(c1)S(=O)(=O)N=C(C1=C(O)[C@@H]3[C@@H]4CC[C@@H](C4)[C@@H]3N(Cc3cccc(C(F)(F)F)c3)C1=O)N2 | 940 nM | – |
| COc1cccc(CN2C(=O)C(C3=NS(=O)(=O)c4cc(NS(C)(=O)=O)ccc4N3)=C(O)[C@@H]3[C@@H]4CC[C@@H](C4)[C@@H]32)c1 | 62 nM | half-life at 1 µM (in vitro [1]; liver microsomes): > 60 min; remaining at 1 h, 1 µM (in vitro [2]; liver microsomes): 83% |
| CS(=O)(=O)Nc1ccc2c(c1)S(=O)(=O)N=C(C1=C(O)[C@@H]3[C@H]4CC[C@H](C4)[C@@H]3N(Cc3cccc(F)c3F)C1=O)N2 | 130 nM | – |
| COc1cc(CN2C(=O)C(C3=NS(=O)(=O)c4cc(NS(C)(=O)=O)ccc4N3)=C(O)[C@@H]3[C@@H]4CC[C@@H](C4)[C@@H]32)ccc1F | 59 nM | half-life at 1 µM (in vitro [1]; microsomes): > 60 min; remaining at 1 h, 1 µM (in vitro [2]; microsomes): 64% |
| CS(=O)(=O)Nc1ccc2c(c1)S(=O)(=O)N=C(C1=C(O)[C@@H]3[C@@H]4CC[C@@H](C4)[C@@H]3N(CC3CCCCC3)C1=O)N2 | 63 nM | half-life at 1 µM (in vitro [1]; liver microsomes): 15 min |
| CC(C)CCN1C(=O)C(C2=NS(=O)(=O)c3cc(NS(C)(=O)=O)ccc3N2)=C(O)[C@@H]2[C@@H]3CC[C@@H](C3)[C@@H]21 | 89 nM | half-life at 1 µM (in vitro [1]; liver microsomes): 18 min |
| CS(=O)(=O)Nc1ccc2c(c1)S(=O)(=O)N=C(C1=C(O)[C@@H]3[C@H]4CC[C@H](C4)[C@@H]3N(Cc3cccc(C(F)(F)F)c3)C1=O)N2 | 820 nM | – |
| CS(=O)(=O)Nc1ccc2c(c1)S(=O)(=O)N=C(C1=C(O)[C@@H]3[C@H]4CC[C@H](C4)[C@@H]3N(CC3CCCCC3)C1=O)N2 | 22 nM | half-life at 1 µM (in vitro [1]; liver microsomes): 44 min |
| CC(C)(C)CCN1C(=O)C(C2=NS(=O)(=O)c3cc(NS(C)(=O)=O)ccc3N2)=C(O)[C@@H]2[C@@H]3CC[C@@H](C3)[C@@H]21 | 50 nM | half-life at 1 µM (in vitro [1]; microsomes): 3 min |
| CS(=O)(=O)Nc1ccc2c(c1)S(=O)(=O)N=C(C1=C(O)[C@@H]3[C@@H]4CC[C@@H](C4)[C@@H]3N(Cc3cccc(F)c3F)C1=O)N2 | 100 nM | – |
| CS(=O)(=O)Nc1ccc2c(c1)S(=O)(=O)N=C(C1=C(O)[C@@H]3[C@@H]4CC[C@@H](C4)[C@@H]3N(Cc3ccc(C(F)(F)F)cc3)C1=O)N2 | > 3300 nM | – |
| Cc1ccc(CN2C(=O)C(C3=NS(=O)(=O)c4cc(NS(C)(=O)=O)ccc4N3)=C(O)[C@@H]3[C@@H]4CC[C@@H](C4)[C@@H]32)cc1F | 1700 nM | – |
